From a compilation of properties of binary mixtures (doi:10.1016/j.molliq.2021.115373)

Assay: xn = mol fraction of the nth substance listed
Conditions: 101 kPa

CC[N+](C)(CC)CCOC.O=S(=O)([N-]S(=O)(=O)C(F)(F)F)C(F)(F)F + O=C1CCCO1
Conditions	electrical conductivity [S/m]	viscosity [mPa·s]
288.15 K, x1 = 0.3003	0.818	14.42
288.15 K, x1 = 0.4007	0.638	21.86
288.15 K, x1 = 0.6999	0.342	87.8
288.15 K, x1 = 0.8001	0.271	118.2
288.15 K, x1 = 0.9003	0.189	159.3
288.15 K, x1 = 1	0.147	225
293.15 K, x1 = 0.2006	1.16	7.44
293.15 K, x1 = 0.4007	0.737	18.34
293.15 K, x1 = 0.6002	0.508	49.4
293.15 K, x1 = 0.6999	0.429	67.7
293.15 K, x1 = 0.8001	0.336	90
293.15 K, x1 = 0.9003	0.246	118.6
298.15 K, x1 = 0.2006	1.29	6.32
298.15 K, x1 = 0.3003	1.03	10.43
298.15 K, x1 = 0.4998	0.688	24.17
298.15 K, x1 = 0.6002	0.595	37.96
298.15 K, x1 = 0.6999	0.504	51.5
298.15 K, x1 = 0.8001	0.413	68.2
298.15 K, x1 = 0.9003	0.31	88.5
298.15 K, x1 = 1	0.24	119.2
303.15 K, x1 = 0.1004	1.41	2.972
303.15 K, x1 = 0.2006	1.45	5.4
303.15 K, x1 = 0.3003	1.16	8.87
303.15 K, x1 = 0.4007	0.956	12.54
303.15 K, x1 = 0.4998	0.791	19.36
303.15 K, x1 = 0.6002	0.688	29.46
303.15 K, x1 = 0.8001	0.488	51.5
303.15 K, x1 = 0.9003	0.382	67.4
308.15 K, x1 = 0.1004	1.52	2.401
308.15 K, x1 = 0.2006	1.59	4.634
308.15 K, x1 = 0.6002	0.786	23.31
308.15 K, x1 = 0.6999	0.693	30.64
308.15 K, x1 = 0.8001	0.576	39.71
308.15 K, x1 = 1	0.365	67.7
313.15 K, x1 = 0.3003	1.43	6.47
313.15 K, x1 = 0.4007	1.21	8.94
313.15 K, x1 = 0.4998	1.02	12.56
313.15 K, x1 = 0.6002	0.898	18.36
313.15 K, x1 = 0.6999	0.805	24.16
313.15 K, x1 = 0.9003	0.545	39.51
313.15 K, x1 = 1	0.44	53
318.15 K, x1 = 0.1004	1.77	1.55
318.15 K, x1 = 0.2006	1.92	3.357
318.15 K, x1 = 0.3003	1.57	5.5
318.15 K, x1 = 0.4007	1.35	7.5
318.15 K, x1 = 0.4998	1.15	10.47
318.15 K, x1 = 0.6999	0.916	19.03
318.15 K, x1 = 0.8001	0.782	24.04
318.15 K, x1 = 0.9003	0.645	30.79
318.15 K, x1 = 1	0.521	40.98
323.15 K, x1 = 0.1004	1.89	1.264
323.15 K, x1 = 0.3003	1.72	4.76
323.15 K, x1 = 0.6999	1.03	14.91
323.15 K, x1 = 0.8001	0.888	18.65
323.15 K, x1 = 0.9003	0.739	24.72
323.15 K, x1 = 1	0.609	33.06
328.15 K, x1 = 0.1004	2.02	1.025
328.15 K, x1 = 0.2006	2.22	2.567
328.15 K, x1 = 0.3003	1.88	4.154
328.15 K, x1 = 0.4007	1.64	5.51
328.15 K, x1 = 0.4998	1.44	7.25
328.15 K, x1 = 0.6999	1.15	11.99
328.15 K, x1 = 0.8001	1	14.94
328.15 K, x1 = 0.9003	0.844	19.43
333.15 K, x1 = 0.1004	2.15	0.838
333.15 K, x1 = 0.2006	2.38	2.237
333.15 K, x1 = 0.3003	2.07	3.578
333.15 K, x1 = 0.4998	1.59	6.07
333.15 K, x1 = 0.6002	1.42	7.65
333.15 K, x1 = 0.6999	1.29	9.72
333.15 K, x1 = 0.8001	1.12	11.69
333.15 K, x1 = 0.9003	0.956	16.5
338.15 K, x1 = 0.1004	2.27	0.686
338.15 K, x1 = 0.2006	2.56	1.957
338.15 K, x1 = 0.3003	2.24	3.117
338.15 K, x1 = 0.4007	1.99	4.059
338.15 K, x1 = 0.4998	1.75	5.21
338.15 K, x1 = 0.6002	1.56	6.3
338.15 K, x1 = 0.6999	1.41	7.76
338.15 K, x1 = 0.8001	1.24	9.36
338.15 K, x1 = 0.9003	1.07	13.36
338.15 K, x1 = 1	0.935	17.49
343.15 K, x1 = 0.1004	2.41	0.558
343.15 K, x1 = 0.2006	2.74	1.718
343.15 K, x1 = 0.4007	2.17	3.53
343.15 K, x1 = 0.6002	1.72	4.94
343.15 K, x1 = 0.6999	1.54	6.16
343.15 K, x1 = 0.8001	1.37	7.56
343.15 K, x1 = 0.9003	1.2	10.95
343.15 K, x1 = 1	1.05	14.91
348.15 K, x1 = 0.1004	2.56	0.458
348.15 K, x1 = 0.2006	2.91	1.517
348.15 K, x1 = 0.3003	2.63	2.346
348.15 K, x1 = 0.4998	2.12	3.777
348.15 K, x1 = 0.6002	1.88	4.265
348.15 K, x1 = 0.8001	1.5	6.13
348.15 K, x1 = 1	1.18	12.3
353.15 K, x1 = 0.1004	2.7	0.392
353.15 K, x1 = 0.4007	2.55	2.74
353.15 K, x1 = 0.4998	2.3	3.376
353.15 K, x1 = 0.6999	1.84	4.04
353.15 K, x1 = 0.8001	1.64	4.81
353.15 K, x1 = 1	1.31	10.28
